Tested on: von Bezold-Jarisch reflex evoked by 5HT
Test: Antagonism of the von Bezold-Jarisch reflex evoked by 5HT in the anaesthetised rat
Format: in vivo
Settings: anaesthetised male rat; compound given intravenously; concentration reducing the 5HT-evoked heart rate response (5-HT usually 6µg/kg i.v.) to 50% of control
Procedure: Antagonism of the von Bezold-Jarisch reflex
The compounds were evaluated for antagonism of the von Bezold-Jarisch reflex evoked by 5HT in the anaesthetised rat according to the following method: • Male rats (Beecham Pharmaceuticals), 250-350g, were anaesthetised with urethane (1.25g/kg intraperitoneally) and blood pressure and heart rate recorded as described by Fozard J.R. et al., J. Cardiovasc. Pharmacol. 2, 229-245 (1980). A submaximal dose of 5-HT (usually 6µg/kg) was given repeatedly by the intravenous route and changes in heart rate quantified. Examples were given intravenously and the concentration required to reduce the 5HT-evoked response to 50% of the control response (ED50) was then determined.

| Structure (SMILES) | ED50 |
| --- | --- |
| CN1C2CCC1CC(NC(=O)c1cc(Cl)cc(Cl)c1)C2 (stereo not drawn) [(2), 3,5-dichloro-N-[3β-{8-methyl-8-azabicyclo(3.2.1)octyl}] benzamide] | 0.3 mg/kg i.v. |
| CN1C2CCC1CC(NC(=O)c1cc(Cl)cc(Cl)c1)C2 (stereo not drawn) [(5), 3,5-Dichloro-N-[3α-{8-methyl-8-azabicyclo(3.2.1)octyl}] benzamide] | 0.009 mg/kg i.v. |

Source: patent publication EP0158265A2, “Benzamide and anilide derivatives” (BEECHAM GROUP PLC, priority 1984, dated 1985)
